Results reported in patent publication US20030059483A1, “Color stable hypochlorous sanitizer and methods” (priority 1999, published 2003).

Experiments:
Format in all cases: physicochemical
[1] = Dye and chlorine stability test, effect of pH; settings: 1 ppm dye; for Initial Color/Appearance: additional formulations; for Initial Color/Appearance / Time needed for solution to become colorless: 100 ppm active chlorine; for Color/Appearance: initial 100 ppm chlorine
[2] = Color longevity at varying active chlorine and dye level, pH 5.8; settings: for Initial Color/Appearance / Time needed for solution to become colorless: 1 ppm dye
[3] = Chlorine stability of acid sanitizer solutions; settings: chlorine 12 ppm, pH 5.13

Molecule: COc1cc(S(=O)(=O)[O-])c(C)cc1N=Nc1c(O)ccc2cc(S(=O)(=O)[O-])ccc12.[Na+].[Na+] [FD&C Red #40]
- Initial Color/Appearance ([1]; pH buffered at 2): colorless
- Initial Color/Appearance ([1]; pH buffered at 4): visible color
- Initial Color/Appearance ([1]; pH buffered at 5.4): visible color
- Initial Color/Appearance ([1]; pH buffered at 5.8): visible color
- Initial Color/Appearance ([1]; pH buffered at 6): visible color
- Initial Color/Appearance ([1]; pH buffered at 8): visible color
- Initial Color/Appearance ([1]; pH buffered at 10): colorless
- Initial Color/Appearance ([1]; pH buffered at 12): colorless
- Color/Appearance ([1]; pH buffered at 2, 0.0 hours): color gone immediately
- Time needed for solution to become colorless ([1]; pH buffered at 2): none
- Color/Appearance ([1]; pH buffered at 2, 175 hours): no color
- Time needed for solution to become colorless ([1]; pH buffered at 4): 2.5 h
- Color/Appearance ([1]; pH buffered at 4, 2.5 hours): color gone
- Color/Appearance ([1]; pH buffered at 4, 175 hours): no color
- Time needed for solution to become colorless ([1]; pH buffered at 5.4): 15 h
- Time needed for solution to become colorless ([1]; pH buffered at 5.8): 5.0 h
- Time needed for solution to become colorless ([1]; pH buffered at 6): 4.0 h
- Color/Appearance ([1]; pH buffered at 6, 5.0 hours): slightly visible
- Color/Appearance ([1]; pH buffered at 6, 175 hours): no color
- Time needed for solution to become colorless ([1]; pH buffered at 8): 0.25 h
- Color/Appearance ([1]; pH buffered at 8, 0.25 hours): color gone
- Color/Appearance ([1]; pH buffered at 8, 175 hours): no color
- Color/Appearance ([1]; pH buffered at 10, 0.0 hours): color gone immediately
- Time needed for solution to become colorless ([1]; pH buffered at 10): none
- Color/Appearance ([1]; pH buffered at 10, 175 hours): no color
- Color/Appearance ([1]; pH buffered at 12, 0.0 hours): color gone immediately
- Time needed for solution to become colorless ([1]; pH buffered at 12): none
- Color/Appearance ([1]; pH buffered at 12, 175 hours): no color
- Initial Color/Appearance ([2]; 10 ppm available chlorine): visible
- Time needed for solution to become colorless ([2]; 10 ppm available chlorine): more than 6.0 hours
- Initial Color/Appearance ([2]; 30 ppm available chlorine): visible
- Time needed for solution to become colorless ([2]; 30 ppm available chlorine): 6.0 h
- Initial Color/Appearance ([2]; 50 ppm available chlorine): visible
- Time needed for solution to become colorless ([2]; 50 ppm available chlorine): 5.0 h
- Initial Color/Appearance ([2]; 80 ppm available chlorine): visible
- Time needed for solution to become colorless ([2]; 80 ppm available chlorine): 4.5 h
- Initial Color/Appearance ([2]; 100 ppm available chlorine): visible
- Time needed for solution to become colorless ([2]; 100 ppm available chlorine): 3.0 h
- relationship between dye concentration and color longevity ([2]; dye level 0.1 to 0.4 wt-%, 100 ppm available chlorine): linear relationship between dye concentration and color longevity

Molecule: Chlorinated trisodium phosphate [Chlorinated TSP]
- Chlorine (ppm) Conc. 0 Time ([3]; 0 time): 12.7 ppm
- Chlorine (ppm) Conc. 4 Hours ([3]; 4 hours): 9.93 ppm
- Chlorine (ppm) Conc. 24 Hours ([3]; 24 hours): 5.67 ppm
